This note sets out measurements from US6444677B2, “5-membered heteroaryl substituted 1,4-dihydropyridine compounds as bradykinin antagonists” (Pfizer Inc., priority 1999, dated 2002).

The structures appear in SMILES notation. Structures can show the parent of a compound that is named as a salt.

A word on the melting point: it is the temperature of the solid-liquid transition. Turning to `COC(=O)C1=C(CCc2nccs2)NC(CC(=O)N2CCN(CC3(C#N)CCCCC3)CC2)=C(C(=O)OC)C1c1c(Cl)cccc1Cl` (stereo not drawn) (as salt: HCl) [Example 1, Dimethyl 2-[2-[4-[(1-cyanocyclohexyl)methyl]-1-piperazinyl]-2-oxoethyl]-4-(2,6-dichlorophenyl)-6-[2-(1,3-thiazol-2-yl)ethyl]-1,4-dihydro-3,5-pyridinedicarboxylate], the melting point is 211 to 213 °C (dec.).

For `COC(=O)C1=C(CCc2nccs2)NC(CC(=O)N2CCN(CC3(CN)CCCCC3)CC2)=C(C(=O)OC)C1c1c(Cl)cccc1Cl` (stereo not drawn) (as salt: HCl) [Example 2, Dimethyl 2-[2-[4-[[1-(aminomethyl)cyclohexyl]methyl]-1-piperazinyl]-2-oxoethyl]-4-(2,6-dichlorophenyl)-6-[2-(1,3-thiazol-2-yl)ethyl]-1,4-dihydro-3,5-pyridinedicarboxylate], the melting point was 206 to 210 °C (dec.).

In the case of `CCNCC1(CN2CCN(C(=O)CC3=C(C(=O)OC)C(c4c(Cl)cccc4Cl)C(C(=O)OC)=C(CCc4nccs4)N3)CC2)CCCCC1` (stereo not drawn) (as salt: HCl) [Example 3, Dimethyl 4-(2,6-dichlorophenyl)-2-[2-[4-[[1-[(ethylamino)methyl]cyclohexyl]methyl]-1-piperazinyl]-2-oxoethyl]-6-[2-(1,3-thiazol-2-yl)ethyl]-1,4-dihydro-3,5-pyridinedicarboxylate], the melting point is 206 to 210 °C (dec.).

For the molecule `COC(=O)C1=C(CCc2nccs2)NC(CC(=O)N2CCN(CC3(N)CCCCC3)CC2)=C(C(=O)OC)C1c1c(Cl)cccc1Cl` (stereo not drawn) (as salt: HCl) [Example 6, Dimethyl 2-[2-[4-[(1-aminocyclohexyl)methyl]-1-piperazinyl]-2-oxoethyl]4-(2,6-dichlorophenyl)-6-[2-(1,3-thiazol-2-yl)ethyl]-1,4-dihydro-3,5-pyridinedicarboxylate], the melting point was 210 to 220 °C (dec.).

Consider `COC(=O)C1=C(CCc2nccs2)NC(CC(=O)N2CCN(CC3(CNC4CCCC4)CCCC3)CC2)=C(C(=O)OC)C1c1c(Cl)cccc1Cl` (stereo not drawn) (as salt: HCl) [Example 11, Dimethyl 2-[2-[4-[[1-[(cyclopentylamino)methyl]cyclopentyl]methyl]-1-piperazinyl]-2-oxoethyl]-4-(2,6dichlorophenyl)-6-[2-(1,3-thiazol-2-yl)ethyl]-1,4-dihydro-3,5-pyridinedicarboxylate], for which the melting point is 174 to 177 °C (dec.).

As to `CCN(CC)C1C2CCC1CC(N1CCN(C(=O)CC3=C(C(=O)OC)C(c4c(Cl)cccc4Cl)C(C(=O)OC)=C(CCc4nccs4)N3)CC1)C2` (stereo not drawn) (as salt: HCl) [Example 12, Dimethyl 4-(2,6-dichlorophenyl)-2-[2-[4-(8-(diethylamino)bicyclo [3.2.1]oct-3-yl)-1-piperazinyl]-2-oxoethyl]-6-[2-(1,3-thiazol-2-yl)ethyl]-1,4-dihydro-3,5-pyridinedicarboxylate], the melting point is 200 to 205 °C (dec.).

Turning to `COC(=O)C1=C(CCc2nccs2)NC(CC(=O)N2CCN(CCC(C)(C)N3CCCC3=O)CC2)=C(C(=O)OC)C1c1c(Cl)cccc1Cl` (stereo not drawn) (as salt: HCl) [Example 20, Dimethyl 4-(2,6-dichlorophenyl)-2-[2-[4-[3-methyl-3-(2-oxo-1-pyrrolidinyl)butyl]-1-piperazinyl]-2-oxoethyl]-6-[2-(1,3-thiazol-2-yl)ethyl]-1,4-dihydro-3,5-pyridinedicarboxylate], the melting point is 179 °C (dec.).

Consider `COC(=O)C1=C(CCc2nccs2)NC(CC(=O)N2CCN(CCCN3CCCC3=O)CC2)=C(C(=O)OC)C1c1c(Cl)cccc1Cl` (stereo not drawn) (as salt: HCl) [Example 22, Dimethyl 4-(2,6-dichlorophenyl)-2-[2-oxo-2-[4-[3-(2-oxo-1-pyrrolidinyl)propyl]-1-piperazinyl]ethyl]-6-[2-(1,3-thiazol-2-yl)ethyl]-1,4-dihydro-3,5-pyridinedicarboxylate], for which the melting point was 185 to 190 °C (dec.).

In the case of `COC(=O)C1=C(CCc2nccs2)NC(CC(=O)N2CCN(C3CCC(N4CCCC4=O)CC3)CC2)=C(C(=O)OC)C1c1c(Cl)cccc1Cl` (stereo not drawn) (as salt: HCl) [Example 23, Dimethyl 4-(2,6-dichlorophenyl)-2-[2-oxo-2-[4-[4-(2-oxo-1-pyrrolidinyl)cyclohexyl]-1-piperazinyl]ethyl]-6-[2-(1,3-thiazol-2-yl)ethyl]-1,4-dihydro-3,5-pyridinedicarboxylate], the melting point was 182 to 184 °C (dec.).

Regarding `COC(=O)C1=C(CCc2nccs2)NC(CC(=O)N2CCN(CCC3(O)CCCCC3)CC2)=C(C(=O)OC)C1c1c(Cl)cccc1Cl` (stereo not drawn) (as salt: HCl) [Example 28, Dimethyl 4-(2,6-dichlorophenyl)-2-[2-[4-[2-(1-hydroxycyclohexyl)ethyl]-1-piperazinyl]-2-oxoethyl]-6-[2-(1,3-thiazol-2-yl)ethyl]-1,4-dihydro-3,5-pyridinedicarboxylate], the melting point is 188 to 190 °C (dec.).

Turning to `COC(=O)C1=C(CCc2nccs2)NC(CC(=O)N2CCN(CCCN3C(=O)CCC3C)CC2)=C(C(=O)OC)C1c1c(Cl)cccc1Cl` (stereo not drawn) (as salt: HCl) [Example 29, Dimethyl 4-(2,6-dichlorophenyl)-2-[2-[4-[3-(2-methyl-5-oxo1-pyrrolidinyl)propyl]-1-piperazinyl]-2-oxoethyl]-6-[2-(1,3-thiazol-2-yl)ethyl]-1,4-dihydro-3,5-pyridinedicarboxylate], the melting point is 188 to 193 °C (dec.).

With `COC(=O)C1=C(CCc2nccs2)NC(CC(=O)N2CCN(CCC3(N4CCCC4=O)CCCC3)CC2)=C(C(=O)OC)C1c1c(Cl)cccc1Cl` (stereo not drawn) (as salt: HCl) [Example 33, Dimethyl 4-(2,6-dichlorophenyl)-2-[2-oxo-2-[4-[2-[1-(2-oxo-1-pyrrolidinyl)cyclopentyl]ethyl]-1-piperazinyl]ethyl]-6-[2-(1,3-thiazol-2-yl)ethyl]-1,4-dihydro-3,5-pyridinedicarboxylate], the melting point was 175 to 180 °C (dec.).

In the case of `CCN(CC)C1(CCN2CCN(C(=O)CC3=C(C(=O)OC)C(c4c(Cl)cccc4Cl)C(C(=O)OC)=C(CCc4nccs4)N3)CC2)CCCC1` (stereo not drawn) (as salt: HCl) [Example 34, Dimethyl 4-(2,6-dichlorophenyl)2-[2-[4-[2-[1-(diethylamino)cyclopentyl]ethyl]-1-piperazinyl]-2-oxoethyl]-6-[2-(1,3-thiazol-2-yl)ethyl]-1,4-dihydro-3,5-pyridinedicarboxylate], the melting point is 195 to 200 °C (dec.).

As for `COC(=O)C1=C(CCc2nccs2)NC(CC(=O)N2CCN(CCCCN3CCOCC3)CC2)=C(C(=O)OC)C1c1c(Cl)cccc1Cl` (stereo not drawn) (as salt: HCl) [Example 38, Dimethyl 4-(2,6-dichlorophenyl)-2-[2-[4-[4-(4-morpholinyl)butyl]-1-piperazinyl]-2-oxoethyl]-6-[2-(1,3-thiazol-2-yl)ethyl]-1,4-dihydro-3,5-pyridinedicarboxylate], the melting point was 169 to 177 °C (dec.).

On to `CCC(CC)(CCN1CCN(C(=O)CC2=C(C(=O)OC)C(c3c(Cl)cccc3Cl)C(C(=O)OC)=C(CCc3nccs3)N2)CC1)N1CCCC1=O` (stereo not drawn) (as salt: HCl) [Example 39, Dimethyl 4-(2,6-dichlorophenyl)-2-[2-[4-[3-ethyl-3-(2-oxo-1-pyrrolidinyl)pentyl]-1-piperazinyl]-2-oxoethyl]-6-[2-(1,3-thiazol-2-yl)ethyl]-1,4-dihydro-3,5-pyridinedicarboxylate], for which the melting point was 151 to 155 °C (dec.).
